The text below walks through data of publication PMC8745124, “The Potential Antimicrobial Action of Human Mucin 7 15-Mer Peptide and Its Metal Complexes” (International Journal of Molecular Sciences, 2021).

One data set relates to E. coli. The settings on record: Table S7, cited from earlier work. As for the experimental part: (§1) page 13: Table S5. Experimentally measured molar extinction coefficients (ε) and absorbance maxima (λmax) for L1, L2 and L3 which concentration was determined by UV-Vis. Solvent HEPES buffer (50 mM. I = 0.16 M).Path length = 1 cm.T = 25°C. λmax [nm] ε [M-1cm-1] L1 275.5 1076 L2 280 1062 L3 275.5 1077 Table S6. Antimicrobial activity of the […] (L1), […] (L2) and […] (L3) and their metal(II) complexes against pathogenic microorganisms. Values are the average of three independent experiments performed in three wells. Ligands/ E. faecalis S. epidermidis E. coli ...

In the next data set the test system is P. aeruginosa. The conditions noted are these: Table S7, cited from earlier work. The method, then:
as §1

The next data set relates to E. faecalis. The settings on record: Table S7, cited from earlier work. From the text: (§2) Values are the average of three independent experiments performed in three wells.
A further data set deals with C. albicans. Details: method as in 2 sources, one per row (each row's own in cited_ref): ref [33] (a number printed in a supplementary file, which may have a reference list of its own: not looked up in the article's list) ||| ref [36] (a number printed in a supplementary file, which may have a reference list of its own: not looked up in the article's list). The conditions noted are these: Table S7; ref [36]; cited from earlier work.
Excerpt: as §2

Data set [1] is classed as physicochemical. The text has this:
Distribution profiles for Cu(II) and Zn(II) complexes calculated based on titrations are depicted in Figure 1. Complexes of L1 with Zn(II) were precipitated in the experimental concentration used for potentiometry above pH 9, while for L2 and L3 complexes were insoluble above pH 7. For copper complexes, precipitation was not observed at any experimental pH value.
Based on the experimental curves, it was possible to determine stability constants only for some complex species (ZnH3L and ZnHL for L2 and ZnH4L, ZnH3L and ZnHL for L3 ligand). […] Based on the competition diagram, Figure 3A, it could be assumed that all His residues are involved in the coordination of the Zn(II) ion directly or indirectly through the steric effect. The L3 ligand has the best affinity to metal ions already in an acidic environment and throughout the range of the tested pH. […] It could be concluded that although L1 and L2 have the same number of histidyl residues, their mutual position affects the effectiveness of metal ion binding at a given pH value. Above pH 6.5, L1 binds the Zn(II) with higher stability than that observed for L2.
Zinc complexes were not soluble above pH 9 and 7 for L1 and L2, L3, respectively. It was surprising that upon contact with the […] n-octanol phase, Zn(II)/L1 complexes formed in the water were precipitated, which prevented further measurement of the partition coefficient logPo/w. This undoubtedly proves the hydrophilic nature of Zn (II)/L1 complexes. In the case of zinc complexes of the remaining ligands, no precipitate was observed, so experimental values of logPo/w were determined. In comparison to free ligands, the lipophilicity of Cu(II) complexes is lower for all studies’ systems. For L2 and L3, and their Zn(II) complex forms, we observed a slight difference in the partition coefficient concerning the ligands themselves, a slight decrease in lipophilicity in the case of Zn(II)/L2 complexes, and an increase in the case of Zn(II)/L3. […]

The next data set concerns S. epidermidis KCTC 1917. It is filed as cell-based, Staphylococcus epidermidis. The conditions noted are these: KCTC 1917, 24 h. As for the experimental part: (§3) The antimicrobial properties of three peptides (L1, L2, L3) and metal(II) complexes (molar ratio, 1:1) were tested on human pathogenic strains. E. coli ATCC 25922, E. faecalis ATCC 29212, P. aeruginosa ATCC 15422, and S. epidermidis KCTC 1917 were grown at 37 °C in Luria Bertani Broth (LB; 10 g/L bacto-tryptone, 5 g/L bacto-yeast extract, 10 g/L NaCl). The C. albicans […] was grown in a 6.7 g/L yeast nitrogen base (YNB) broth (Difco Laboratories) containing 2% D-glucose at 37 °C. The minimum inhibitory concentration (MIC) values of the peptides and their metal(II) complexes were determined using the microdilution broth method in 96-well microplates (Sarstedt, Nümbrecht, Germany). The serial dilutions of tested compounds (0–500 µM) were dissolved in LB medium for bacteria and YNB medium for C. albicans. The inoculum (2.5 µL) of each strain (10^8 CFU mL^−1) was placed into each well containing 200 µL of serial dilutions of the tested peptides and their metal(II) complexes. […] Bacteria and C. albicans incubated with metal ions were used as additional controls. After 24 h of incubation at 37 °C, the optical density at 600 nm of each well was measured using a multifunctional microplate reader (Synergy™ H1, BioTek, Winooski, VT, USA).

Another data set deals with C. albicans ATCC 10231. In kind it is cell-based, Candida albicans. The settings on record: ATCC 10231, 24 h. As for the experimental part: as §3
In the next data set the test system is E. faecalis ATCC 29212. It is filed as cell-based, Enterococcus faecalis. The settings on record: ATCC 29212, 24 h. The method, then:
as §3

The test system of the next data set is E. coli ATCC 25922. In kind it is cell-based, Escherichia coli. The conditions noted are these: ATCC 25922, 24 h. As for the experimental part:
as §3

A further data set has as its system P. aeruginosa ATCC 15422. In kind it is cell-based, Pseudomonas aeruginosa. The settings on record: ATCC 15422, 24 h. The method, then:
as §3

The target in data set [2] is Lys1 (position 1, -----KSAFEL). Put plainly: potentiometry. The conditions noted are these: 25 ± 0.2 °C (298 K), I = 0.1 M (KCl), none (HCl/KOH titration under Ar).
The target in data set [3] is Nterm1 (position 1, -----KSAFEL). The experiment in a line: potentiometry. The settings on record: 25 ± 0.2 °C (298 K); I = 0.1 M (KCl); none (HCl/KOH titration under Ar); free peptide, no metal; ligand 1.0 × 10^-3 M (the Table 2 caption says 0.0005 M).
For data set [4], the target named is His8 (position 8, …). Put plainly: potentiometry. The conditions noted are these: 25 ± 0.2 °C (298 K); I = 0.1 M (KCl); none (HCl/KOH titration under Ar); free peptide, no metal; ligand 1.0 × 10^-3 M (the Table 2 caption says 0.0005 M).
The target in data set [5] is Tyr9 (position 9, …). The experiment in a line: potentiometry. The settings on record: 25 ± 0.2 °C (298 K), I = 0.1 M (KCl), none (HCl/KOH titration under Ar).
The target of data set [6] is His14 (position 14, YGLLAHQ----). The experiment in a line: potentiometry. The settings on record: 25 ± 0.2 °C (298 K), I = 0.1 M (KCl), none (HCl/KOH titration under Ar).
Data set [7] addresses His3 (position 3, ---KSHFELPA). Put plainly: potentiometry. The settings on record: 25 ± 0.2 °C (298 K); I = 0.1 M (KCl); none (HCl/KOH titration under Ar); free peptide, no metal; ligand 1.0 × 10^-3 M (the Table 2 caption says 0.0005 M).
For data set [8], the target named is Lys1 (position 1, -----KSHFEL). Put plainly: potentiometry. The conditions noted are these: 25 ± 0.2 °C (298 K), I = 0.1 M (KCl), none (HCl/KOH titration under Ar).
Data set [9] has as its target Nterm1 (position 1, -----KSHFEL). The experiment in a line: potentiometry. The conditions noted are these: 25 ± 0.2 °C (298 K); I = 0.1 M (KCl); none (HCl/KOH titration under Ar); free peptide, no metal; ligand 1.0 × 10^-3 M (the Table 2 caption says 0.0005 M).
Data set [10] concerns the target Tyr9 (position 9, …). The experiment in a line: potentiometry. The conditions noted are these: 25 ± 0.2 °C (298 K), I = 0.1 M (KCl), none (HCl/KOH titration under Ar). This is another data set of the same source.
Data set [11] deals with His8 (position 8, …). The experiment in a line: potentiometry. The settings on record: 25 ± 0.2 °C (298 K); I = 0.1 M (KCl); none (HCl/KOH titration under Ar); free peptide, no metal; ligand 1.0 × 10^-3 M (the Table 2 caption says 0.0005 M). This is another data set of the same source.
Data set [12] has as its target His3 (position 3, ---KSHFELPH). Put plainly: potentiometry. The settings on record: 25 ± 0.2 °C (298 K); I = 0.1 M (KCl); none (HCl/KOH titration under Ar); free peptide, no metal; ligand 1.0 × 10^-3 M (the Table 2 caption says 0.0005 M).
[13] abbreviates: Cu(II)-bound mononuclear complex (4N coordination), metal:ligand 1:1.1 and 1:2.
Where [14] appears, read: free peptide, no metal, ligand 1.0 × 10^-3 M (the Table 2 caption says 0.0005 M).

In brackets after ≈: the same amount, converted by molar mass. Where two headings read alike, the source gives them in different places. No end group written: not given here.

For orientation: MIC means the least concentration at which growth counts as inhibited. As usually defined, the pKa is the negative logarithm of the acid dissociation constant. The low end stands for a group that gives up its proton readily, the high end for a group that holds its proton tightly.

Regarding `O=C(O)c1cn(C2CC2)c2cc(N3CCNCC3)c(F)cc2c1=O` [Ciprofloxacin], the MIC with E. coli (ref [33]) is 0.08 µg/mL (≈ 0.241 µM); with P. aeruginosa (ref [33]), 0.16 µg/mL (≈ 0.483 µM).

For the molecule `CNC(C)C1CCC(N)C(OC2C(N)CC(N)C(OC3OCC(C)(O)C(NC)C3O)C2O)O1` (stereo not shown) [Gentamicin], the MIC was no less than 2.50 µg/mL in the data set on E. faecalis (ref [33]), no less than 2.50 µg/mL in the data set on E. coli (ref [33]) and 0.31 µg/mL (≈ 0.649 µM) in the data set with P. aeruginosa (ref [33]).

Regarding Clavanin B, the MIC was 64 µg/mL in the data set with C. albicans, 256 µg/mL in the data set on E. faecalis (ref [36]) and 256 µg/mL in the data set on E. coli (ref [36]).

For Clavanin D, the MIC in the data set with C. albicans was 16 µg/mL; in the data set on E. faecalis (ref [36]) it was 128 µg/mL; in the data set on E. coli (ref [36]) it was 64 µg/mL.

Regarding Gramicidin S, the MIC was 6.25 µg/mL with E. faecalis (ref [35]), 50 µg/mL with E. coli (ref [35]) and 50 µg/mL with P. aeruginosa (ref [35]).

As to KSAFELPHYGLLAHQ [L1], in [1], the solubility in water entry is “soluble in water”. Besides, the MIC is 132 ± 1.6 µM in the data set on S. epidermidis KCTC 1917; 436 ± 2.4 µM with C. albicans ATCC 10231; 145 ± 3.1 µM in the data set on E. faecalis ATCC 29212; 412 ± 2.4 µM in the data set on E. coli ATCC 25922; 285 ± 2.6 µM in the data set on P. aeruginosa ATCC 15422.

On to KSHFELPAYGLLAHQ [L2], for which the solubility in water result in data set [1] was “soluble in water”. The MIC stood at 147 ± 1.6 µM with S. epidermidis KCTC 1917; 469 ± 1.4 µM in the data set on C. albicans ATCC 10231; 163 ± 2.2 µM with E. faecalis ATCC 29212; 416 ± 0.5 µM with E. coli ATCC 25922; 302 ± 2.8 µM with P. aeruginosa ATCC 15422.

For KSHFELPHYGLLAHQ [L3], the solubility in water result in [1] is “soluble in water”. Moreover, the MIC was 210 ± 2.6 µM in the data set with S. epidermidis KCTC 1917; greater than 888 µg/mL in the data set on C. albicans ATCC 10231; 241 ± 1.6 µM in the data set with E. faecalis ATCC 29212; greater than 888 µg/mL with E. coli ATCC 25922; 313 ± 2.5 µM in the data set with P. aeruginosa ATCC 15422.

As to Polymyxin, the minimum inhibitory concentration (MIC) was greater than 16 µg/mL in the data set on E. faecalis (ref [34]), 1 µg/mL in the data set with E. coli (ref [34]) and 1 µg/mL in the data set on P. aeruginosa (ref [34]).

B1: MUC7 15-mer peptide analogue L1 (KSAFELPHYGLLAHQ) (Homo sapiens (synthetic peptide); H3A) (peptide)
chain: KSAFELPHYGLLAHQ
Regarding B1, the pKa in data set [2] (setting [13]) is on record as 10.86; in data set [2] (setting [14]) it was 9.92; in data set [3], 7.59; in the data set with His8 (position 8, …) [4], 5.98; with Tyr9 (position 9, …) [5] (setting [13]) it was 9.61; with Tyr9 (position 9, …) [5] (setting [14]) it was 9.44. This molecule showed a pKa in data set [6] (setting [14]) of 6.62.

B2: MUC7 15-mer peptide analogue L2 (KSHFELPAYGLLAHQ) (Homo sapiens (synthetic peptide); H8A) (peptide)
chain: KSHFELPAYGLLAHQ
Turning to B2, the pKa in data set [7] came out at 5.62; in data set [8] (setting [13]), 10.06; in [8] (setting [14]), 10.50; in data set [9], 7.42; in [6] (setting [13]), 6.46; in data set [6] (setting [14]), 6.72. Besides, the pKa with Tyr9 (position 9, …) [10] (setting [13]) worked out at 9.43; in the data set with Tyr9 (position 9, …) [10] (setting [14]) it was 9.58.

B3: MUC7 15-mer peptide L3 (KSHFELPHYGLLAHQ, mother peptide) (Homo sapiens (synthetic peptide)) (peptide)
chain: KSHFELPHYGLLAHQ
In the case of B3, the pKa in the data set with His8 (position 8, …) [11] stood at 6.34; in data set [8] (setting [13]) it was 9.85; in data set [8] (setting [14]), 10.01; with Tyr9 (position 9, …) [5] (setting [13]), 9.62; with Tyr9 (position 9, …) [5] (setting [14]) it was 9.35; in data set [12], 5.40. Moreover, the pKa in data set [9] was found to be 7.36; in data set [6] (setting [14]), 6.75.
